# Read-outs that look alike come from different tables or passages of the source.
# Legend:
# Type in all cases: biochemical
# JAK3 = JAK3 (Homo sapiens (Human), UniProt P52333); assay: Enzyme assay (Assay Example^a 1), JAK3; conditions: ATP 100 μM
# JAK2 = JAK2 (Homo sapiens (Human), UniProt O60674); assay: Enzyme assay (Assay Example^a 1), JAK2
# Tyk2 = Tyk2 (Homo sapiens (Human), UniProt P29597); assay: Enzyme assay (Assay Example^a 1), Tyk2; conditions: ATP 100 μM
# JAK1 = JAK1 (Homo sapiens (Human), UniProt P23458); assay: Enzyme assay (Assay Example^a 1), JAK1; conditions: ATP 100 μM
# Chain of JAK3 (P52333 whole entry): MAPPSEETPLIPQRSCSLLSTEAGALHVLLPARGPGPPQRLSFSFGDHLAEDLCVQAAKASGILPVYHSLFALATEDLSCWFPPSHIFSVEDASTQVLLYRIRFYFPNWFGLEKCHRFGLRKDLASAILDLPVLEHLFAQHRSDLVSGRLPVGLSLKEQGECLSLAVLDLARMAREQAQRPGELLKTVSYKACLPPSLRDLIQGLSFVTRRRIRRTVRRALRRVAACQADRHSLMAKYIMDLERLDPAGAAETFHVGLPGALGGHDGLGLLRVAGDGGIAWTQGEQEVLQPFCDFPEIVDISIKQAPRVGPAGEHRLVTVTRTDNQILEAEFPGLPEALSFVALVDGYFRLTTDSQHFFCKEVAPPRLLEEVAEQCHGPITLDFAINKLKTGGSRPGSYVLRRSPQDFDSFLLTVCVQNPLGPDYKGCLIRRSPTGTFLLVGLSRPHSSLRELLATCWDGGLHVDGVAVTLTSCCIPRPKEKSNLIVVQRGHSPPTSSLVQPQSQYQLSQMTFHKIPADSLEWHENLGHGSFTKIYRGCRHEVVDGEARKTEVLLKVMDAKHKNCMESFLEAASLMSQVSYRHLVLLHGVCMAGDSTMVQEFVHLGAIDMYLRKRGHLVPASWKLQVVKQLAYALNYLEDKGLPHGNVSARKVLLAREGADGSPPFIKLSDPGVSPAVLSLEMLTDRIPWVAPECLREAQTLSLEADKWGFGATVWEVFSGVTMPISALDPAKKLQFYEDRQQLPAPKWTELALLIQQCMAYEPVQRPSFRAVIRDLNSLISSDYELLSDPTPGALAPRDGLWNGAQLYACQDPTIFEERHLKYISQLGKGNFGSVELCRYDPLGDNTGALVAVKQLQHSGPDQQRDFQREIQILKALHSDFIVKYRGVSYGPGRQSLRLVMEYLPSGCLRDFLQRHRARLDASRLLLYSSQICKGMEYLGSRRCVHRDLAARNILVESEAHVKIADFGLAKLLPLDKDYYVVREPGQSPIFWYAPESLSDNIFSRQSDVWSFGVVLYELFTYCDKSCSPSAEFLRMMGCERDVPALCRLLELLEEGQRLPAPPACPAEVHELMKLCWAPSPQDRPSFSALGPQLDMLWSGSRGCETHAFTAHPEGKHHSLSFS
# Chain of Tyk2 (P29597 whole entry): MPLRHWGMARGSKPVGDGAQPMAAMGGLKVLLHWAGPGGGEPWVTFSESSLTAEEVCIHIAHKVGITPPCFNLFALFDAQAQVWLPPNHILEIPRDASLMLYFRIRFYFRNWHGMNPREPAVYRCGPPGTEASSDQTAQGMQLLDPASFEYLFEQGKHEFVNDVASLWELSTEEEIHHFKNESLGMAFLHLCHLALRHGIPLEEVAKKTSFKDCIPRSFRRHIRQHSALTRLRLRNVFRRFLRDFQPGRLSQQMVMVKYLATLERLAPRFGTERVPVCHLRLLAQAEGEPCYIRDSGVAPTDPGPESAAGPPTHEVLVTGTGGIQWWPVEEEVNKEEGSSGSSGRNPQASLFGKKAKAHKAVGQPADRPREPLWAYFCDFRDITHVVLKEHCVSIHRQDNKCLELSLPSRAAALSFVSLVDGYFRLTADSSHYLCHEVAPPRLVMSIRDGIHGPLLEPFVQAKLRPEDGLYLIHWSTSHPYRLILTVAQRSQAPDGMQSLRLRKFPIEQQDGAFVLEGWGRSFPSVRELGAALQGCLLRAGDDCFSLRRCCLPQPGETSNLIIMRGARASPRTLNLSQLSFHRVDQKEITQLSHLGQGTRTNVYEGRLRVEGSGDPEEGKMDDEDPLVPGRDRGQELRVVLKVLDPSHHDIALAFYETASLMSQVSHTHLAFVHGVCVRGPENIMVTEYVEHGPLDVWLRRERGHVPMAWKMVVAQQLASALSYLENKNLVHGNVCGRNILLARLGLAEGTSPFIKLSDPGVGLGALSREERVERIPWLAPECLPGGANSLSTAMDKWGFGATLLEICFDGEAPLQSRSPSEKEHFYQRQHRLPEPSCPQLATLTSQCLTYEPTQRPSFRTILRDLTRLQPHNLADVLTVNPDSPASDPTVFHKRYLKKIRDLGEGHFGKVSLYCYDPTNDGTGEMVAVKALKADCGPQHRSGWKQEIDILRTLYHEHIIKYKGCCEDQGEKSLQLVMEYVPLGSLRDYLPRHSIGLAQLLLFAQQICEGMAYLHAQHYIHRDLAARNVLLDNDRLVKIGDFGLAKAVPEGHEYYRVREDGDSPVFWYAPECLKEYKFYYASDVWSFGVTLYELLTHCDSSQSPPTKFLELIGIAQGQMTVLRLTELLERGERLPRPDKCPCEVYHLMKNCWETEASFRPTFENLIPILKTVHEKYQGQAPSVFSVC
smiles,measurement,setting,value
"OC1(c2ccc(Cl)c(C(F)(F)F)c2)CCN(C[C@H]2CC[C@H](c3nnn4cnc5[nH]ccc5c34)CC2)CC1 [compound 309, 1-{[trans-4-(7H-pyrrolo[3,2-e][1,2,3]triazolo[1,5-c]pyrimidin-1-yl)cyclohexyl]methyl}-4-[4-chloro-3-(trifluoromethyl)phenyl]piperidin-4-ol]",IC50,JAK3,> 1 µM
same,IC50,JAK2,0.097 µM
same,IC50,Tyk2,0.31 µM
same,IC50,JAK1,0.0076 µM
"N#CC1(c2ccccc2)CCN(C[C@H]2CC[C@H](c3nnn4cnc5[nH]ccc5c34)CC2)CC1 [compound 310, 1-{[trans-4-(7H-pyrrolo[3,2-e][1,2,3]triazolo[1,5-c]pyrimidin-1-yl)cyclohexyl]methyl}-4-phenylpiperidine-4-carbonitrile]",IC50,JAK3,> 1 µM
same,IC50,JAK2; ATP 100 μM,0.38 µM
same,IC50,Tyk2,> 1 µM
same,IC50,JAK1,0.071 µM
"CC(C)(O)C1CCN(C[C@H]2CC[C@H](c3nnn4cnc5[nH]ccc5c34)CC2)CC1 [compound 311, 2-(1-{[trans-4-(7H-pyrrolo[3,2-e][1,2,3]triazolo[1,5-c]pyrimidin-1-yl)cyclohexyl]methyl}piperidin-4-yl)propan-2-ol]",IC50,JAK3,> 1 µM
same,IC50,JAK2; ATP 100 μM,0.16 µM
same,IC50,Tyk2,0.94 µM
same,IC50,JAK1,0.025 µM
"N#CCCN1CCN(C[C@H]2CC[C@H](c3nnn4cnc5[nH]ccc5c34)CC2)CC1 [compound 314, 3-(4-{[trans-4-(7H-pyrrolo[3,2-e][1,2,3]triazolo[1,5-c]pyrimidin-1-yl)cyclohexyl]methyl}piperazin-1-yl)propanenitrile]",IC50,JAK3,> 1 µM
same,IC50,JAK2; ATP 100 μM,0.19 µM
same,IC50,Tyk2,0.75 µM
same,IC50,JAK1,0.008 µM
"OCCN1CCN(C[C@H]2CC[C@H](c3nnn4cnc5[nH]ccc5c34)CC2)CC1 [compound 315, 2-(4-{[trans-4-(7H-pyrrolo[3,2-e][1,2,3]triazolo[1,5-c]pyrimidin-1-yl)cyclohexyl]methyl}piperazin-1-yl)ethanol]",IC50,JAK3,> 1 µM
same,IC50,JAK2; ATP 100 μM,0.2 µM
same,IC50,Tyk2,0.53 µM
same,IC50,JAK1,0.01 µM
"c1cc2c(ncn3nnc([C@H]4CC[C@H](CNC56CC(C5)C6)CC4)c23)[nH]1 [compound 316, N-{[trans-4-(7H-pyrrolo[3,2-e][1,2,3]triazolo[1,5-c]pyrimidin-1-yl)cyclohexyl]methyl}bicyclo[1.1.1]pentan-1-amine]",IC50,JAK3,> 1 µM
same,IC50,JAK2; ATP 100 μM,0.099 µM
same,IC50,Tyk2,0.59 µM
same,IC50,JAK1,0.013 µM
"FC(F)(F)C(NC[C@H]1CC[C@H](c2nnn3cnc4[nH]ccc4c23)CC1)C(F)(F)F [compound 317, N-{[trans-4-(7H-pyrrolo[3,2-e][1,2,3]triazolo[1,5-c]pyrimidin-1-yl)cyclohexyl]methyl}-1,1,1,3,3,3-hexafluoropropan-2-amine]",IC50,JAK3,0.47 µM
same,IC50,JAK2; ATP 100 μM,0.016 µM
same,IC50,Tyk2,0.62 µM
same,IC50,JAK1,0.0013 µM
"CC(=O)N[C@@H]1CCN(C[C@H]2CC[C@H](c3nnn4cnc5[nH]ccc5c34)CC2)C1 [compound 318, N-((R)-1-{[trans-4-(7H-pyrrolo[3,2-e][1,2,3]triazolo[1,5-c]pyrimidin-1-yl)cyclohexyl]methyl}pyrrolidin-3-yl)acetamide]",IC50,JAK3,> 1 µM
same,IC50,JAK2; ATP 100 μM,0.057 µM
same,IC50,Tyk2,0.61 µM
same,IC50,JAK1,0.0048 µM
"CC(=O)N[C@H]1CCN(C[C@H]2CC[C@H](c3nnn4cnc5[nH]ccc5c34)CC2)C1 [compound 319, N-((S)-1-{[trans-4-(7H-pyrrolo[3,2-e][1,2,3]triazolo[1,5-c]pyrimidin-1-yl)cyclohexyl]methyl}pyrrolidin-3-yl)acetamide]",IC50,JAK3,> 1 µM
same,IC50,JAK2; ATP 100 μM,0.23 µM
same,IC50,Tyk2,> 1 µM
same,IC50,JAK1,0.027 µM
"O=C(N[C@@H]1CCN(C[C@H]2CC[C@H](c3nnn4cnc5[nH]ccc5c34)CC2)C1)C(F)(F)F [compound 320, N-((R)-1-{[trans-4-(7H-pyrrolo[3,2-e][1,2,3]triazolo[1,5-c]pyrimidin-1-yl)cyclohexyl]methyl}pyrrolidin-3-yl)-2,2,2-trifluoroacetamide]",IC50,JAK3,> 1 µM
same,IC50,JAK2; ATP 100 μM,0.057 µM
same,IC50,Tyk2,0.86 µM
same,IC50,JAK1,0.0076 µM
"O=C(N[C@H]1CCN(C[C@H]2CC[C@H](c3nnn4cnc5[nH]ccc5c34)CC2)C1)C(F)(F)F [compound 321, N-((S)-1-{[trans-4-(7H-pyrrolo[3,2-e][1,2,3]triazolo[1,5-c]pyrimidin-1-yl)cyclohexyl]methyl}pyrrolidin-3-yl)-2,2,2-trifluoroacetamide]",IC50,JAK3,> 1 µM
same,IC50,JAK2; ATP 100 μM,0.21 µM
same,IC50,Tyk2,> 1 µM
same,IC50,JAK1,0.024 µM
"Fc1ccc(C2(NC[C@H]3CC[C@H](c4nnn5cnc6[nH]ccc6c45)CC3)CCC2)cc1 [compound 324, N-{[trans-4-(7H-pyrrolo[3,2-e][1,2,3]triazolo[1,5-c]pyrimidin-1-yl)cyclohexyl]methyl}-1-(4-fluorophenyl)cyclobutanamine]",IC50,JAK3,0.66 µM
same,IC50,JAK2; ATP 100 μM,0.034 µM
same,IC50,Tyk2,0.75 µM
same,IC50,JAK1,0.0034 µM
"COCCN(CCOC)C[C@H]1CC[C@H](c2nnn3cnc4[nH]ccc4c23)CC1 [compound 326, N-{[trans-4-(7H-pyrrolo[3,2-e][1,2,3]triazolo[1,5-c]pyrimidin-1-yl)cyclohexyl]methyl}-2-methoxy-N-(2-methoxyethyl)ethanamine]",IC50,JAK3,> 1 µM
same,IC50,JAK2; ATP 100 μM,0.31 µM
same,IC50,Tyk2,> 1 µM
same,IC50,JAK1,0.048 µM
"OCC1(NC[C@H]2CC[C@H](c3nnn4cnc5[nH]ccc5c34)CC2)CC1 [compound 327, [1-({[trans-4-(7H-pyrrolo[3,2-e][1,2,3]triazolo[1,5-c]pyrimidin-1-yl)cyclohexyl]methyl}amino)cyclopropyl]methanol]",IC50,JAK3,0.79 µM
same,IC50,JAK2; ATP 100 μM,0.054 µM
same,IC50,Tyk2,0.55 µM
same,IC50,JAK1,0.007 µM
"CNC[C@H]1CC[C@H](c2nnn3cnc4[nH]ccc4c23)CC1 [compound 329, 1-[trans-4-(7H-pyrrolo[3,2-e][1,2,3]triazolo[1,5-c]pyrimidin-1-yl)cyclohexyl]-N-methylmethanamine]",IC50,JAK3,0.8 µM
same,IC50,JAK2; ATP 100 μM,0.029 µM
same,IC50,Tyk2,0.21 µM
same,IC50,JAK1,0.0048 µM
"CCNC[C@H]1CC[C@H](c2nnn3cnc4[nH]ccc4c23)CC1 [compound 330, N-{[trans-4-(7H-pyrrolo[3,2-e][1,2,3]triazolo[1,5-c]pyrimidin-1-yl)cyclohexyl]methyl}ethanamine]",IC50,JAK3,> 1 µM
same,IC50,JAK2; ATP 100 μM,0.047 µM
same,IC50,Tyk2,0.14 µM
same,IC50,JAK1,0.0074 µM
"CC(C)NC[C@H]1CC[C@H](c2nnn3cnc4[nH]ccc4c23)CC1 [compound 331, N-{[trans-4-(7H-pyrrolo[3,2-e][1,2,3]triazolo[1,5-c]pyrimidin-1-yl)cyclohexyl]methyl}propan-2-amine]",IC50,JAK3,> 1 µM
same,IC50,JAK2; ATP 100 μM,0.054 µM
same,IC50,Tyk2,0.42 µM
same,IC50,JAK1,0.0088 µM
"CC(C)(C)NC[C@H]1CC[C@H](c2nnn3cnc4[nH]ccc4c23)CC1 [compound 332, N-{[trans-4-(7H-pyrrolo[3,2-e][1,2,3]triazolo[1,5-c]pyrimidin-1-yl)cyclohexyl]methyl}-2-methylpropan-2-amine]",IC50,JAK3,> 1 µM
same,IC50,JAK2; ATP 100 μM,0.045 µM
same,IC50,Tyk2,0.49 µM
same,IC50,JAK1,0.012 µM
"C#CCNC[C@H]1CC[C@H](c2nnn3cnc4[nH]ccc4c23)CC1 [compound 333, N-{[trans-4-(7H-pyrrolo[3,2-e][1,2,3]triazolo[1,5-c]pyrimidin-1-yl)cyclohexyl]methyl}prop-2-yn-1-amine]",IC50,JAK3,> 1 µM
same,IC50,JAK2; ATP 100 μM,0.044 µM
same,IC50,Tyk2,0.27 µM
same,IC50,JAK1,0.0085 µM
"c1cc2c(ncn3nnc([C@H]4CC[C@H](CN5CCC(N6CCOCC6)CC5)CC4)c23)[nH]1 [compound 334, 4-(1-{[trans-4-(7H-pyrrolo[3,2-e][1,2,3]triazolo[1,5-c]pyrimidin-1-yl)cyclohexyl]methyl}piperidin-4-yl)morpholine]",IC50,JAK3,> 1 µM
same,IC50,JAK2; ATP 100 μM,> 1 µM
same,IC50,Tyk2,> 1 µM
same,IC50,JAK1,0.064 µM
"CC(C)(C)OC(=O)N1CCC(CNC[C@H]2CC[C@H](c3nnn4cnc5[nH]ccc5c34)CC2)CC1 [compound 335, tert-butyl 4-[({[trans-4-(7H-pyrrolo[3,2-e][1,2,3]triazolo[1,5-c]pyrimidin-1-yl)cyclohexyl]methyl}amino)methyl]piperidine-1-carboxylate]",IC50,JAK3,> 1 µM
same,IC50,JAK2; ATP 100 μM,0.29 µM
same,IC50,Tyk2,0.71 µM
same,IC50,JAK1,0.029 µM
"CC(C)(C)OC(=O)NCC1CCN(C[C@H]2CC[C@H](c3nnn4cnc5[nH]ccc5c34)CC2)CC1 [compound 336, tert-butyl [(1-{[trans-4-(7H-pyrrolo[3,2-e][1,2,3]triazolo[1,5-c]pyrimidin-1-yl)cyclohexyl]methyl}piperidin-4-yl)methyl]carbamate]",IC50,JAK3,> 1 µM
same,IC50,JAK2; ATP 100 μM,0.37 µM
same,IC50,Tyk2,> 1 µM
same,IC50,JAK1,0.025 µM
"CC(C)(C)OC(=O)N1CC[C@H](NC[C@H]2CC[C@H](c3nnn4cnc5[nH]ccc5c34)CC2)C1 [compound 337, (S)-tert-butyl 3-({[trans-4-(7H-pyrrolo[3,2-e][1,2,3]triazolo[1,5-c]pyrimidin-1-yl)cyclohexyl]methyl}amino)pyrrolidine-1-carboxylate]",IC50,JAK3,> 1 µM
same,IC50,JAK2; ATP 100 μM,0.34 µM
same,IC50,Tyk2,0.51 µM
same,IC50,JAK1,0.029 µM
"FC1CN(C[C@H]2CC[C@H](c3nnn4cnc5[nH]ccc5c34)CC2)C1 [compound 338, 1-{trans-4-[(3-fluoroazetidin-1-yl)methyl]cyclohexyl}-7H-pyrrolo[3,2-e][1,2,3]triazolo[1,5-c]pyrimidine]",IC50,JAK3,0.48 µM
same,IC50,JAK2; ATP 100 μM,0.06 µM
same,IC50,Tyk2,0.59 µM
same,IC50,JAK1,0.0069 µM
"FC1(F)CN(C[C@H]2CC[C@H](c3nnn4cnc5[nH]ccc5c34)CC2)C1 [compound 339, 1-{trans-4-[(3,3-difluoroazetidin-1-yl)methyl]cyclohexyl}-7H-pyrrolo[3,2-e][1,2,3]triazolo[1,5-c]pyrimidine]",IC50,JAK3,0.26 µM
same,IC50,JAK2; ATP 100 μM,0.052 µM
same,IC50,Tyk2,0.86 µM
same,IC50,JAK1,0.018 µM
"CN(C)[C@@H]1CCN(C[C@H]2CC[C@H](c3nnn4cnc5[nH]ccc5c34)CC2)C1 [compound 340, (R)-1-{[trans-4-(7H-pyrrolo[3,2-e][1,2,3]triazolo[1,5-c]pyrimidin-1-yl)cyclohexyl]methyl}-N,N-dimethylpyrrolidin-3-amine]",IC50,JAK3,> 1 µM
same,IC50,JAK2; ATP 100 μM,0.23 µM
same,IC50,Tyk2,> 1 µM
same,IC50,JAK1,0.021 µM

# Source: patent publication US9216999B2, “Substituted pyrrolo[2,3-h][1,6]naphthyridines and compositions thereof as JAK inhibitors” (priority 2011, dated 2015)
